Like-named read-outs stand apart in the source and are kept apart here.
Assays:
α4β7-MAdCAM = target: T1, α4β7-MAdCAM (Homo sapiens, UniProt P13612+P26010); experiment: MAdCAM cell adhesion assay, RPMI 8866 cells; format: cell-based; conditions: RPMI 8866 cells to MAdCAM; read-out: Inhibition of cell adhesion (IC50)
T1 construct: endogenous in cells; host or cells: RPMI 8866 cells (human B lymphoid cell line)
T1 sequence (P13612 34-1032): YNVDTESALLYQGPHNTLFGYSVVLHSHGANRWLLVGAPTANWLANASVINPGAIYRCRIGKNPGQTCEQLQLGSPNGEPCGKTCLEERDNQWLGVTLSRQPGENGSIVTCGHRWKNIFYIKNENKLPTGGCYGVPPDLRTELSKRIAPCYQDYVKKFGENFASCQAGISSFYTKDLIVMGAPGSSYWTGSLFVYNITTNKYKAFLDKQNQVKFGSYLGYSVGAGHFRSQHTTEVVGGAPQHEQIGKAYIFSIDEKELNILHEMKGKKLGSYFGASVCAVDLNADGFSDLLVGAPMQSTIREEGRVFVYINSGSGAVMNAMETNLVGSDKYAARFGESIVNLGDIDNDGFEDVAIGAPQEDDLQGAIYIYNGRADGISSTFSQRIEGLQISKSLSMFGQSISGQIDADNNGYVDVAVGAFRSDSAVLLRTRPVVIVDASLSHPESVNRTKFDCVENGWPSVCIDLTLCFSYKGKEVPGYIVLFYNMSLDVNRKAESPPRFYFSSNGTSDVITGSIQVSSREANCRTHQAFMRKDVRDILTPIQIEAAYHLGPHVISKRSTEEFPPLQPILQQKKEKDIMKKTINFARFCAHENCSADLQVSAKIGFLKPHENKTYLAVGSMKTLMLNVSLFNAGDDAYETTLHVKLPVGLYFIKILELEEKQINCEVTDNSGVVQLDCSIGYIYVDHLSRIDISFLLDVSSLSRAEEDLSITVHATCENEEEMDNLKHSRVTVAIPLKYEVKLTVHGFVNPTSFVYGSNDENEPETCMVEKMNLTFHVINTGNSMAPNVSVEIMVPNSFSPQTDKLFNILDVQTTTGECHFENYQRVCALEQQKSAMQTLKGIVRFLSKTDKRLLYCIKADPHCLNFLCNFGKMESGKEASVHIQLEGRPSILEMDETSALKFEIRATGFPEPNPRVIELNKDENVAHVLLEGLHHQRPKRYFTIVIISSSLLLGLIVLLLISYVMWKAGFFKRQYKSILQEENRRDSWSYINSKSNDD
T1 sequence (P26010 20-798): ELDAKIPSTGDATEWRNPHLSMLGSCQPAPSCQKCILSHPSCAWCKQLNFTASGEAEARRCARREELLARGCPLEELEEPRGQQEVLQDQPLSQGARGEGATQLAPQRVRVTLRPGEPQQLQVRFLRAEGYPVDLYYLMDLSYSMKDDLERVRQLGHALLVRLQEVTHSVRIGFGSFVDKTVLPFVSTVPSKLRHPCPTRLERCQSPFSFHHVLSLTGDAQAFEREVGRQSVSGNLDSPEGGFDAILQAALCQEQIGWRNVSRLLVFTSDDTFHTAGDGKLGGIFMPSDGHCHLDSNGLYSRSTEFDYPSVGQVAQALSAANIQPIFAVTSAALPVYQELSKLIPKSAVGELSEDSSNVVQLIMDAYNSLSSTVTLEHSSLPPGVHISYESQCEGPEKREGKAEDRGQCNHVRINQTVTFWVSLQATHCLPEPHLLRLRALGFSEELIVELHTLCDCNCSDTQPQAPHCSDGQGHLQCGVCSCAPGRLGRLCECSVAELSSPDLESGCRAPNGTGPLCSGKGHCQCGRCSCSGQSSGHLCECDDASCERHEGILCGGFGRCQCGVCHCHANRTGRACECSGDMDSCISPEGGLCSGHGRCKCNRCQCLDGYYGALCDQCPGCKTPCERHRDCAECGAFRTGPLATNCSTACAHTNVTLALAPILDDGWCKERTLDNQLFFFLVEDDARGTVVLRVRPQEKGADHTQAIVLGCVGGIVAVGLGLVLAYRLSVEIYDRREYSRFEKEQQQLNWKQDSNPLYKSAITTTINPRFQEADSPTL
Protocol: Jurkat J6 cells (human lymphoblast cell line) were grown as a suspension culture in RPMI 1640 supplemented with FCS (10%) and glutamine (2 mM). RPMI8866 cells (human B lymphoid cell line) were grown as a suspension culture in RPMI 1640 supplemented with FCS (10%) and glutamine (2 mM). RBL-2H3 cells (rat basophilic cell line) were cultured in Eagle's MEM plus Earles salts supplemented with 2 mM L-glutamine, 1 mM sodium pyruvate, 1× non-essential amino acids, 1 mM Na pyruvate 10% heat inactivated foetal calf serum.
Polystyrene 96-well microtitre plates were coated with IgG at a concentration of 0.05 mg/mL in bicarbonate buffer for 2.5 hours at 37° C. The solution was aspirated and the plates washed twice with PBS. The plates were then incubated overnight at 4° C. with MAdCAM at a concentration of 204.0 ng/mL in 3% BSA in PBS. Prior to use the MAdCAM was aspirated and the plates washed twice with PBS. J6 or RPMI cells (as required) were labelled with the fluorescent dye BCECF-AM (10 μM and 6×10^6 cells/mL) for 10 min at 37° C. before the excess was removed by centrifugation at 500 g for 5 min and the cells resuspended at a cell concentration of 1.2×10^7 cells/mL in HBSS. Equal volumes of HBSS containing the compound of formula I (over concentration range 38.1 pM to 10 μM) and cells were added to the MAdCAM coated plates. […] The plates were counted in a Wallac Viktor.

[1] = PK study in rabbits, ocular tissue concentrations (LC-MS/MS); format: in vivo, New Zealand White rabbits; conditions: for Tmax: topical or ocular, both studies; for concentration at 6 h: persisted up to 6 hours
Protocol: The potassium salt of GW559090, referred to herein as GW559090A, was given to male New Zealand White rabbits by topical ocular administration as a single bilateral drop (Study #1: n=2 rabbits/4 eyes per time point; Study #2: n=3 rabbits/6 eyes per time point). At designated times (0.5, 1, 3, 6 hours post administration), ocular tissues were collected and processed for analysis. Concentrations of GW559090 were measured in cornea and bulbar conjunctiva by liquid chromatography with tandem mass spectrometry (LC-MS/MS).

[2] = male, New Zealand White, rabbit, conjunctiva, topical, 40 μL (50 mg/mL) GW559090A, read-out: Conjunctival tissue concentration
[3] = male, New Zealand White, rabbit, cornea, topical, 40 μL (50 mg/mL) GW559090A, read-out: Corneal tissue concentration
[4] = single topical 40 μL (50 mg/mL) GW559090A

In the case of `Cc1ccccc1OCC(=O)N[C@@H](CC(C)C)C(=O)N[C@@H](Cc1ccc(OC(=O)N2CCC(C(N)=O)CC2)cc1)C(=O)O` [GW559090, (2S)-3-[4-({[4-(Aminocarbonyl)-1-piperidinyl]carbonyl}oxy)phenyl]-2-[((2S)-4-methyl-2-{[2-(2-methylphenoxy)acetyl]amino}pentanoyl)amino]propanoic acid], the IC50 (α4β7-MAdCAM) is reported as 23 nM, the “Mean cornea concentrations versus mean conjunctiva concentrations” value ([1]; 3 and 6 hour postdose) is reported as “higher” and the Tmax ([1]; male, New Zealand White, rabbit, bulbar conjunctiva, single topical 40 μL (50 mg/mL) GW559090A, read-out: Tmax in bulbar conjunctiva) is reported as 60 min. For the same molecule, the concentration at 30 min [1, 2] was greater than 3000 ng/mL, the concentration at 6 h [1, 2] was roughly 358 ng/mL and the Tmax ([1]; male, New Zealand White, rabbit, cornea, single topical 40 μL (50 mg/mL) GW559090A, read-out: Tmax in cornea) was 30 min. The concentration at 30 min [1, 3] was greater than 3000 ng/mL, the concentration at 3 h ([1]; male, New Zealand White, rabbit, cornea, topical, at 3 hours, 40 μL (50 mg/mL) GW559090A, read-out: Corneal tissue concentration) was greater than 1000 ng/mL and the concentration at 6 h [1, 3] was roughly 358 ng/mL. For the same molecule, the “Mean conjunctiva concentrations quantifiable through” value [1, 4] was 6 h and the “Mean cornea concentrations quantifiable through” value [1, 4] was 6 h.

Source: patent publication US10413535B2, “Pharmaceutical compositions comprising an integrin ALPHA4 antagonist for use in treating ocular inflammatory conditions” (AXEROVISION, INC., priority 2015, dated 2019)
